Each structure is given as a SMILES string.

Test [1] deals with T1, Ephrin type-B receptor 2 (Homo sapiens) (UniProt P29323).
T1 sequence (whole entry): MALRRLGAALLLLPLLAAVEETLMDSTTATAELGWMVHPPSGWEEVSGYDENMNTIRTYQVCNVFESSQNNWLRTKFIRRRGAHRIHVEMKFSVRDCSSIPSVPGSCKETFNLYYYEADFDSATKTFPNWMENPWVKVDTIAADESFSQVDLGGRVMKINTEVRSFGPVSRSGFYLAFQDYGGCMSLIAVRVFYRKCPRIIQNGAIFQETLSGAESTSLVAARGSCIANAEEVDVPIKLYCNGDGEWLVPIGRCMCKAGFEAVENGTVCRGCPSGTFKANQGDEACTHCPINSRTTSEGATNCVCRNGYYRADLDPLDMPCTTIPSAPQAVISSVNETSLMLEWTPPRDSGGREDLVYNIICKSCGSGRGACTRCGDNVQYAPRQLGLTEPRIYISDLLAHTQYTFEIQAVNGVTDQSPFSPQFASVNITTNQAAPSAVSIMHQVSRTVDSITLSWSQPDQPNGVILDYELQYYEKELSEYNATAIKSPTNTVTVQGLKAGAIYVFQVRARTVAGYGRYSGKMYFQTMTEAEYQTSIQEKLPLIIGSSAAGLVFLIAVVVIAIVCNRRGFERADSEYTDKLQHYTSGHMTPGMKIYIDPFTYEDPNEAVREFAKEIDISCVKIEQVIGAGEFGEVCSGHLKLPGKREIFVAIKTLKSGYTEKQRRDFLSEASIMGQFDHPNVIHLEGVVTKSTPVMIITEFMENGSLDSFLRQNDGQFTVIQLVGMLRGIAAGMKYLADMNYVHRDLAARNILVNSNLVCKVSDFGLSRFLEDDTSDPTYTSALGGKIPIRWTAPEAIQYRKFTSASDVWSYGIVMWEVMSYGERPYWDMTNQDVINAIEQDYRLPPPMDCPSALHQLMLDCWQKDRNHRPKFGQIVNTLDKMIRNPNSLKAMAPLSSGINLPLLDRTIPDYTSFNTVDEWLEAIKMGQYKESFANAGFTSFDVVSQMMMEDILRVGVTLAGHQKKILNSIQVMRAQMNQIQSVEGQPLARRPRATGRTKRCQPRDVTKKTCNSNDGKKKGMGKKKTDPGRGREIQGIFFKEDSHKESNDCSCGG
Briefly: Selectivity interaction (ProQinase) EUB0000171b EPHB2.

The target of test [2] is Myosin light chain kinase, smooth muscle (Homo sapiens, UniProt Q15746). The settings on record: at 10 µM.
Test [3] addresses Death-associated protein kinase 3 (Homo sapiens) (UniProt O43293). The test is described as follows: Selectivity interaction (KinomeScan (DiscoverX)) EUB0000092b DAPK3. The settings on record: at 10 µM.
The target in test [4] is RAF proto-oncogene serine/threonine-protein kinase (Homo sapiens) (UniProt P04049). Briefly: Selectivity interaction (KinomeScan (DiscoverX)) EUB0001049a RAF1. The settings on record: at 1 µM.
Test [5] concerns the target Serine/threonine-protein kinase OSR1 (Homo sapiens) (UniProt O95747). Briefly: Selectivity interaction (KinomeScan (DiscoverX)) EUB0000655a OXSR1. The settings on record: at 10 µM.
The test system of test [6] is Platelet-derived growth factor receptor alpha (Homo sapiens), P16234 [V561D]. The test is described as follows: (§1) Selectivity interaction (Kinase panel (Carna Biosciences)) EUB0001542aTs PDGFRA. The note with it: at 1 µM.
Test [7] concerns Platelet-derived growth factor receptor alpha (Homo sapiens), P16234 [T674I]. The description is as §1. The note with it: at 1 µM.
Test [8] addresses Platelet-derived growth factor receptor alpha (Homo sapiens, UniProt P16234). The description is as §1. The note with it: at 1 µM.
The target of test [9] is Eukaryotic translation initiation factor 2-alpha kinase 1 (Homo sapiens) (UniProt Q9BQI3). The test is described as follows: Selectivity interaction (KinomeScan (DiscoverX)) EUB0000607a EIF2AK1. The note with it: at 10 µM.
Test [10] addresses Mitogen-activated protein kinase 9 (Homo sapiens, UniProt P45984). The test is described as follows: Selectivity interaction (SelectScreen profiling (Invitrogen)) EUB0000607a MAPK9. The note with it: at 2 µM.
The target in test [11] is Ephrin type-A receptor 5 (Homo sapiens) (UniProt P54756). The test is described as follows: Selectivity interaction (KinomeScan (DiscoverX)) EUB0000229b EPHA5. The settings on record: at 10 µM.
The target of test [12] is T2, Serine/threonine-protein kinase PLK4 (Homo sapiens) (UniProt O00444).
T2 sequence (whole entry): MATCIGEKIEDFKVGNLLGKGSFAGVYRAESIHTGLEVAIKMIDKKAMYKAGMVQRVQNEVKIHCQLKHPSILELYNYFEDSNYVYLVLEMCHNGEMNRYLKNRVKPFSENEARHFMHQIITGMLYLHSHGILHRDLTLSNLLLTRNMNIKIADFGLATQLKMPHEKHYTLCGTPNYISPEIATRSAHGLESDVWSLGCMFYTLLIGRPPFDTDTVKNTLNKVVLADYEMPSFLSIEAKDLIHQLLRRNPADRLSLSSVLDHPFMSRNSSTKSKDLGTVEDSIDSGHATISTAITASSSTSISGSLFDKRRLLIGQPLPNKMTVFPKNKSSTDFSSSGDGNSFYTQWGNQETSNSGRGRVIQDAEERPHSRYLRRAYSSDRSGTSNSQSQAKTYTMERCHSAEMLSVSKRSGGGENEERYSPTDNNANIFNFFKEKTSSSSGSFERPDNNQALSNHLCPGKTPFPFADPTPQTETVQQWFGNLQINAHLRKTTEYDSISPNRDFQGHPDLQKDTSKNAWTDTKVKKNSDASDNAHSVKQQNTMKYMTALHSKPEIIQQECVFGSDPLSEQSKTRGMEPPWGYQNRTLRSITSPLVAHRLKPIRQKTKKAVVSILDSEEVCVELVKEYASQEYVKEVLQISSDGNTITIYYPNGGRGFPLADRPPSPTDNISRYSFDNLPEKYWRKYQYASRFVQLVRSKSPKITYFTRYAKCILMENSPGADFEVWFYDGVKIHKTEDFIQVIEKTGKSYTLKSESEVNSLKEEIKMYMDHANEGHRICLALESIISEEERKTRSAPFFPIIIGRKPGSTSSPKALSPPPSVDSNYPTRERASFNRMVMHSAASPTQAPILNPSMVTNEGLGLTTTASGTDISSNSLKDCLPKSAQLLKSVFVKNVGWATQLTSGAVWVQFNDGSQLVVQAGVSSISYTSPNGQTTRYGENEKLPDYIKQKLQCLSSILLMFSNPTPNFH
The test is described as follows: Selectivity interaction (Kinase panel (DSF assay)) EUB0001559a PLK4.

Sequence of Platelet-derived growth factor receptor alpha (Homo sapiens), P16234 [T674I] (P16234 whole entry T674I): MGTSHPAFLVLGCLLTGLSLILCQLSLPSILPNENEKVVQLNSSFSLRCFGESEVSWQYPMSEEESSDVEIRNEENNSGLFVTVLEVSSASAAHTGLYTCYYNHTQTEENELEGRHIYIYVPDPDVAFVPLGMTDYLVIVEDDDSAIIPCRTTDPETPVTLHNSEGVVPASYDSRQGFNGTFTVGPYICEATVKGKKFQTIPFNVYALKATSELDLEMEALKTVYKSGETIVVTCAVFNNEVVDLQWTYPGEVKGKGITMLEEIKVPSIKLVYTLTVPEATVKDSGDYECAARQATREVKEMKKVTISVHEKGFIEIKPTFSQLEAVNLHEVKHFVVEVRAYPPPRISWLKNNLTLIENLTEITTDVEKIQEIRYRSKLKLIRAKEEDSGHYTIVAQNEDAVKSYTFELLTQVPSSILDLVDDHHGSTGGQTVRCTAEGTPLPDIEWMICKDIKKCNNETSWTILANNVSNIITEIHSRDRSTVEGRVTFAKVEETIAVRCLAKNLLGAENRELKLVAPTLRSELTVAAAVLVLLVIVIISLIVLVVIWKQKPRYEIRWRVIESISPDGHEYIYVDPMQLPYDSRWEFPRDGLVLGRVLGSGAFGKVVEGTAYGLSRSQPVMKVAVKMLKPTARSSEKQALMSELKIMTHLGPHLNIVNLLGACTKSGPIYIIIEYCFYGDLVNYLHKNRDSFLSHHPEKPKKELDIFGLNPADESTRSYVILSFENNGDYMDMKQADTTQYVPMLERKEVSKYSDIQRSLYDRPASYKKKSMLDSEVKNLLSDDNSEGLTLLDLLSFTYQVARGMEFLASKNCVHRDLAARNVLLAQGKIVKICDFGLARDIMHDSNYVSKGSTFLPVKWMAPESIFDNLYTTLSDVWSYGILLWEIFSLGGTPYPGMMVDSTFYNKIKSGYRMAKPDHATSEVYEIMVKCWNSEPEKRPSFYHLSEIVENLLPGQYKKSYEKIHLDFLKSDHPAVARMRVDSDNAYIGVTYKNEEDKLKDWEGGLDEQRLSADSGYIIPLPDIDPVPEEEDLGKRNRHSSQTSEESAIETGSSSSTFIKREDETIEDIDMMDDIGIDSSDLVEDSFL
Sequence of Platelet-derived growth factor receptor alpha (Homo sapiens), P16234 [V561D] (P16234 whole entry V561D): as the sequence (P16234 whole entry T674I) above, with V561D, I674T counted along it
Sequence of Myosin light chain kinase, smooth muscle (Q15746 whole entry): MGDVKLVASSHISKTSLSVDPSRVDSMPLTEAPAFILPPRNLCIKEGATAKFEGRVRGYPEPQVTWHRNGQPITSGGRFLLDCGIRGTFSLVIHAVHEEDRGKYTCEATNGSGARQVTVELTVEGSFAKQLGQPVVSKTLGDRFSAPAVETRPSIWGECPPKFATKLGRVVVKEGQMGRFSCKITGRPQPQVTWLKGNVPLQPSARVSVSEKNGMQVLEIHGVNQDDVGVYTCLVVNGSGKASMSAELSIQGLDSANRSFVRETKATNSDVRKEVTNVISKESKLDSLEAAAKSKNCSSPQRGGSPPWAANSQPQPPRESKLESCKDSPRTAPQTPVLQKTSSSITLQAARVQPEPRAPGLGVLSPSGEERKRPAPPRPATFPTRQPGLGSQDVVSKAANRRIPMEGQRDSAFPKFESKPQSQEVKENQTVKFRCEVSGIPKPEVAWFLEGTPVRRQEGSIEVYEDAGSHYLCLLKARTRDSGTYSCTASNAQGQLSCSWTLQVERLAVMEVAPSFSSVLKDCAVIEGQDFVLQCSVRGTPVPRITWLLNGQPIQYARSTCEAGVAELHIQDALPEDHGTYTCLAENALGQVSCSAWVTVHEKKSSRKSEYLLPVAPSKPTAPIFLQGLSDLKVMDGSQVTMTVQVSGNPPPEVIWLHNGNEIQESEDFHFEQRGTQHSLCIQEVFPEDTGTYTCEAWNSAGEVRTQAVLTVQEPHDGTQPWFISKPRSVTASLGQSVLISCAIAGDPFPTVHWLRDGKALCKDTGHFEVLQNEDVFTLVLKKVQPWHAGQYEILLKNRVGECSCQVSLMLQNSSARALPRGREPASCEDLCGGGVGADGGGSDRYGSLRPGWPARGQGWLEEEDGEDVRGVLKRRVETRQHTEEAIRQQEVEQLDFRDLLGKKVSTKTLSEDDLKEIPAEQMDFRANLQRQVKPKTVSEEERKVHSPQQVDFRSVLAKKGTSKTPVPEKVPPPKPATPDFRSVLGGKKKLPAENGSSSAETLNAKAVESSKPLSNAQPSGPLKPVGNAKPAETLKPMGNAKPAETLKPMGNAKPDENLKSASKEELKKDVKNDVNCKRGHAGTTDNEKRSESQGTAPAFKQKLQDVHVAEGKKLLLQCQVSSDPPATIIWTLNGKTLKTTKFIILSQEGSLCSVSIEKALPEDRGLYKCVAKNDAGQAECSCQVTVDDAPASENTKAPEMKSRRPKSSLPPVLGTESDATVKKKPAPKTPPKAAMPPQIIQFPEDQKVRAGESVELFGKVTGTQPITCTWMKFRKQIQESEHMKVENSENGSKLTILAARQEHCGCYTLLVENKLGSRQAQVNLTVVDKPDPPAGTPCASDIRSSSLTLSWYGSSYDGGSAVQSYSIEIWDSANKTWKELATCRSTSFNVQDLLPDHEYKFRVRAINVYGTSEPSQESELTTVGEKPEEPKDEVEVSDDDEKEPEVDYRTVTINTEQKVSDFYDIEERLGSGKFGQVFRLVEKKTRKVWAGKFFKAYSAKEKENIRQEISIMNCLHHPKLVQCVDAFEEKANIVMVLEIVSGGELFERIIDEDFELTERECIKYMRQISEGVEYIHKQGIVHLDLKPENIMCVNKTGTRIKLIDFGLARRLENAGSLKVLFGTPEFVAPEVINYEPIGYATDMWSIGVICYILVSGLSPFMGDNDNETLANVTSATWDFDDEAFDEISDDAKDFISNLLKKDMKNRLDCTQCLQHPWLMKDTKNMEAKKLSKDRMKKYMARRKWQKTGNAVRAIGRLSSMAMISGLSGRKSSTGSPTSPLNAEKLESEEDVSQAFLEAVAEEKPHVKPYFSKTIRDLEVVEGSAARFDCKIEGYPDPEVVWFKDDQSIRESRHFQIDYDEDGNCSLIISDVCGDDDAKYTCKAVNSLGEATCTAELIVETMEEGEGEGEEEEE
Sequence of Death-associated protein kinase 3 (Homo sapiens) (O43293 whole entry, looked up): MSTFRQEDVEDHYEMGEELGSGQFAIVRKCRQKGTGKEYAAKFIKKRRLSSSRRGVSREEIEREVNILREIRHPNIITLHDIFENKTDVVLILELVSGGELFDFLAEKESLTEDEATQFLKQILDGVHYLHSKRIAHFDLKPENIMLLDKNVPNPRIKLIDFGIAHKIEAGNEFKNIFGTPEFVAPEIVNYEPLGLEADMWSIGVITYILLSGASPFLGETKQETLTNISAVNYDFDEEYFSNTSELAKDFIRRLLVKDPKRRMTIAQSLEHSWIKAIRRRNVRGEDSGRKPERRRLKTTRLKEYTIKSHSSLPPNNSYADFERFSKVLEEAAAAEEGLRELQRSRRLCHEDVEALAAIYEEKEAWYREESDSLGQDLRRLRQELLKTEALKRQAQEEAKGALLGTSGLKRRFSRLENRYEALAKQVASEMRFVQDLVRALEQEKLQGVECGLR
Sequence of Eukaryotic translation initiation factor 2-alpha kinase 1 (Homo sapiens) (Q9BQI3 whole entry): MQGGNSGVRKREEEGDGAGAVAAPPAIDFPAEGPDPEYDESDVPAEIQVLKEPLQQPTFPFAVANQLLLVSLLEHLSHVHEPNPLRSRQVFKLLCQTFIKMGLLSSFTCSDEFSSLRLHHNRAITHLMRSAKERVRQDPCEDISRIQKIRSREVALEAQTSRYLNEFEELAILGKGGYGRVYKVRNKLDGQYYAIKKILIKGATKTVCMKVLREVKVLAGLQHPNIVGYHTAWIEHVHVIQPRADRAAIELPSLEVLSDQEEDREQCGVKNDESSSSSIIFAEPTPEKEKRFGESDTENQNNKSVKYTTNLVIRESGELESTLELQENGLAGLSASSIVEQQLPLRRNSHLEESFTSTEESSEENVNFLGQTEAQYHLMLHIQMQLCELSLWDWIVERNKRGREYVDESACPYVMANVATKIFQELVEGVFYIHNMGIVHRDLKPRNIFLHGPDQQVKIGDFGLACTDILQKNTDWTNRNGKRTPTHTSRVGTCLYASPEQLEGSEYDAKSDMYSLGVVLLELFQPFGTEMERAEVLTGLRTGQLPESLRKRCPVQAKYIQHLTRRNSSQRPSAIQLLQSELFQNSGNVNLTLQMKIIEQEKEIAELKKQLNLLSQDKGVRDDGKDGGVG
Sequence of Mitogen-activated protein kinase 9 (P45984 whole entry, looked up): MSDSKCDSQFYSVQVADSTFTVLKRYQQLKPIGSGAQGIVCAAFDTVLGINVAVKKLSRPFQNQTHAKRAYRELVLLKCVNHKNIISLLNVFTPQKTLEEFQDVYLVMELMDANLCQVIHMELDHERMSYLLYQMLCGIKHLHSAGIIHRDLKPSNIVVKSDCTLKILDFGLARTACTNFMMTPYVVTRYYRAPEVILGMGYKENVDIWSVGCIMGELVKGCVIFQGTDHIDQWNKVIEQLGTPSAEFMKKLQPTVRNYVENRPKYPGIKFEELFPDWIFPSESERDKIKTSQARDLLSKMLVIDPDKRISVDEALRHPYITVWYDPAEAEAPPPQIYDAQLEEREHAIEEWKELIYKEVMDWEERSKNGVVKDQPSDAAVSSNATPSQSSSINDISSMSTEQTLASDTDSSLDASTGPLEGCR
Sequence of Serine/threonine-protein kinase OSR1 (Homo sapiens) (O95747 2-527 limits assumed): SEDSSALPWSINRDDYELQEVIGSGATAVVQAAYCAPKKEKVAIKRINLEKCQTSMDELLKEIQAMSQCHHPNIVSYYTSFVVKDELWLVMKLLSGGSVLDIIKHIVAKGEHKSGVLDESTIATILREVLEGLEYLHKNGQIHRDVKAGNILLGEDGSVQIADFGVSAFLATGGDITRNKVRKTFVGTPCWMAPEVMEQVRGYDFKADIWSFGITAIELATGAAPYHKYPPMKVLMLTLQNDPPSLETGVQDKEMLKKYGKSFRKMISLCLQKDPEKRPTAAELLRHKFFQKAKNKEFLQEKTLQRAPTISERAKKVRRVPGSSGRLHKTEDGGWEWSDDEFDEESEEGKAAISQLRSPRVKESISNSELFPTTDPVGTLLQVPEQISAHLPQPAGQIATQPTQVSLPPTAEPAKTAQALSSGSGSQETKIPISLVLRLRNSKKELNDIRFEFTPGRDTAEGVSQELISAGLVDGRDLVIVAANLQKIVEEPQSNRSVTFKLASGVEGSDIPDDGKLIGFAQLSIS

For the molecule `C=CC(=O)Nc1cccc(C(=O)Nc2ccc(Nc3cc(-c4[nH]c(SC)nc4C)ccn3)cc2)c1`, the % of control in test [1] (at 1 µM) worked out at 93%; in test [1] (at 5 µM) it was 78%. In test [2], `Cc1cc([C@@H](C)Nc2ccccc2C(=O)O)c2nc(N3CCOCC3)cc(=O)n2c1` [AZD-6482] returned a % of control of 100%.

In test [3], `CCC(=O)N1CCN(c2ccc(-n3c(=O)ccc4cnc5ccc(-c6cnc7ccccc7c6)cc5c43)cc2C(F)(F)F)CC1` gave a % of control of 82%. In the case of `COc1cc(Nc2nc(C)cc(-c3cnn4nc(OC)ccc34)n2)cc(C(F)(F)F)c1`, the % of control in test [4] came out at 100%. In the case of `CN(C)CCOc1ccc(-c2nc(-c3ccncc3)c(-c3ccc4c(c3)CC/C4=N\O)[nH]2)cc1`, the % of control in test [5] was determined as 100%. `Cn1cc(Nc2nccc(N3CC4CCC(C3)N4C(=O)[C@@H]3CC3(F)F)n2)cn1`: the % of inhibition turned out to be 60% in test [6], 78% in [7] and 70% in test [8]. In test [9], `CNC(=O)Nc1ccc(-c2nc(N3CC4CCC(C3)O4)c3cnn(C4CCC5(CC4)OCCO5)c3n2)cc1` yielded a % of control of 100%. Further, the % of inhibition in test [10] turned out to be 11%. `COc1cc(N(C)c2ccnc3ccc(C(F)(F)F)cc23)cc(OC)c1OC`: the % binding in test [11] is 97%. Molecule `CN(C(=O)c1cnn2cccnc12)c1cc2c(cc1N1CCOCC1)C(=O)N(C[C@@H](F)C(C)(C)O)C2` registered a dTM in [12] of -0.4 K.

For the origin of these results see ChEMBL document CHEMBL5465560, “Selectivity Literature for EUbOPEN Chemogenomic Library” (2024).
